Test results reported in PubChem BioAssay AID1159557 (GlaxoSmithKline (GSK), 2015).
The source made the active and inactive calls. How the calls were made is not given here.

System: Trypanosoma brucei growth inhibition
Experiment: T. brucei growth inhibition (AID 1159557);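 further: parasites exposed to compound for 48 h before the resazurin readout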

Row | Structure (SMILES) | IC50
1 | CC1=C(C(=O)Nc2ccc(Cl)cc2)C(c2ccncc2)n2ncc(C(=O)Nc3ccccc3)c2N1 (configuration not stated) | 3.2 µM
2 | CCOc1ccc2nc(NC(=O)c3ccc([N+](=O)[O-])s3)sc2c1 | 1.3 µM
3 | Cn1cncc1CN1CCC2(CC1)COC(Cc1ccccc1)C2 (configuration not stated) | > 40 µM (inactive)
4 | O=C(c1ccc(OCCCc2cnc[nH]2)cc1)C1CC1 | 10 µM
5 | Cc1nn2c(NCCCO)c3c(nc2c1-c1cccs1)CCC3 | 0.32 µM
6 | O=C(Nc1cccc(S(=O)(=O)Nc2ccc(Br)cc2)c1)c1ccc([N+](=O)[O-])s1 | 0.2 µM
7 | O=C1CSC(c2cccnc2)N1c1ccc(Cl)cc1Cl (configuration not stated) | > 40 µM (inactive)
8 | Cc1c(C#N)c([N+](=O)[O-])nn1Cc1cccc(Cl)c1Cl | 16 µM
9 | N#Cc1ccc(S(=O)(=O)N2CCN(Cc3cccc(-c4ccncc4)c3)CC2)cc1 | > 40 µM (inactive)
10 | O=S1N=C(NCCCN(Cc2ccc(F)cc2)c2ccccn2)C(NCc2ccncc2)=N1 (configuration not stated) | 0.32 µM
11 | CCS(=O)(=O)c1cccc(C(=O)Nc2nc(-c3ccccn3)cs2)c1 | 0.5 µM
12 | COc1cc(OC)cc(C(=O)N[C@@H](CC(C)C)C(=O)NC2(C#N)CC2)c1 | 0.5 µM
13 | O=C(Nc1ccc(-c2nc3ccccc3c(=O)[nH]2)cc1)c1cccs1 | 0.25 µM
14 | NCc1ccc2c(Cl)cc(Cl)c(O)c2n1 | 0.4 µM
15 | Nc1ncnc2c1ncn2[C@@H]1O[C@H](CO)C[C@H]1O | 0.013 µM
16 | CS(=O)(=O)c1cccc(CNC(=O)c2cncc(N3CCN(c4ccc(F)cc4)CC3)c2)c1 | 32 µM
17 | O=C(CN(c1cccc(C(F)(F)F)c1)S(=O)(=O)c1ccc(Cl)cc1)NCc1ccc(F)c(F)c1 | 10 µM
18 | O=c1cc(NCCCNC2CCOc3c(I)cc(Cl)cc32)[nH]c2ccccc12 (configuration not stated) | 0.01 µM
19 | Cn1nc([N+](=O)[O-])nc1N1CCCCC1 | > 40 µM (inactive)
20 | CN1CCC(N(C)c2nccc(N3CCN(C(=O)c4cccc(-c5cccnc5)c4)CC3)n2)CC1 | 0.79 µM
21 | CC(C)C[C@H](NC(=O)c1csc(-c2cccs2)n1)C(=O)NC1(C#N)CC1 | 0.16 µM

Row | Structure (SMILES) | IC50
22 | Oc1cccnc1-c1n[nH]c(Cc2ccccc2)n1 | 5 µM
23 | CCN(Cc1cccs1)C(=O)CSc1nnc(-c2ccc3c(c2)OCO3)o1 | 25 µM
24 | CN1C(=O)c2ccccc2Sc2ccc(NC(=O)NCc3ccco3)cc21 | 0.4 µM
25 | CCC(=O)Nc1ccccc1C(=O)Nc1ccccn1 | 0.32 µM
26 | CNC(=O)C1Cc2ccccc2N1C(=O)Cc1ccccc1 (configuration not stated) | 0.63 µM
27 | COc1ccc(S(=O)(=O)Nc2ccc(C(=O)Nc3nc(-c4ccccn4)cs3)cc2)cc1 | 0.79 µM
28 | COc1ccc(S(=O)(=O)NCc2ccc(-c3ccc(CN(C)CCO)cc3)cc2)cc1 | 3.2 µM
29 | CC(c1cc(Cl)cc(Cl)c1)N(C)c1ncc2c(N)nc(N)nc2n1 (configuration not stated) | > 40 µM (inactive)
30 | Cc1occc1C(=O)Nc1ccccc1C(=O)Nc1nccs1 | 0.4 µM
31 | CC(=Cc1ccccc1)CN1CCC(=O)N(Cc2cccnc2)CC1 | > 40 µM (inactive)
32 | Cc1ccc(S(=O)(=O)Nc2ccc(CN3CCN(C(=O)c4cccc(C)c4)CC3)cc2)cc1 | 0.25 µM
33 | O=C(NCCc1ccccc1Cl)c1cccn1-c1cccnc1 | 32 µM
34 | CCC1Oc2cc(S(=O)(=O)N(C)CC(=O)N3CCc4ccccc4C3)c(C)cc2NC1=O (configuration not stated) | 25 µM
35 | CC(C)(C)C(=O)Nc1cc(C2CC2)nn1-c1nc2c(c(=O)[nH]1)CCCC2 | 0.16 µM
36 | CC(C)(C)C(Cn1ccnc1)NC(=O)c1ccc2nc(C3CC3)oc2c1 (configuration not stated) | > 40 µM (inactive)
37 | COc1ccc(CN2C(=O)C(O)(CC(=O)c3ccncc3)c3cc(Br)ccc32)cc1OC (configuration not stated) | 0.63 µM
38 | COc1ccc(OC)c(NC(=O)c2ccc([N+](=O)[O-])o2)c1 | 0.016 µM
39 | CC(C)(C)Nc1nc(-c2ccccn2)nc2ccccc12 | 6.3 µM
40 | COc1ccc(NC(=O)c2ccc(NC(=O)CN(c3ccccc3C)S(C)(=O)=O)cc2)cc1 | 0.2 µM
41 | CC(=O)Nc1ccc(-c2csc(NC(=O)c3ccc([N+](=O)[O-])s3)n2)cc1 | 0.025 µM
42 | Cc1c([N+](=O)[O-])c(C(=O)Nc2sc3c(c2C#N)CCC(C)C3)nn1C (configuration not stated) | > 40 µM (inactive)

Row | Structure (SMILES) | IC50
43 | Oc1c(-c2n[nH]c(CCc3ccccc3)n2)ncc2cccnc12 | 0.79 µM
44 | O=C(Nc1ccc(C(F)(F)F)cc1)NC1(C(=O)NCc2ccco2)CCCCC1 | 0.79 µM
45 | CCn1c(-c2nonc2N)nc2c([C@@H](C)O)ncc(O[C@H](CN)c3ccccc3)c21 | 0.63 µM
46 | O=C1COC(c2ccccc2)(c2ccccc2)CN1C1CCN(Cc2ccc(-n3ccnc3)cc2)CC1 | 0.79 µM
47 | Cc1nn(-c2nc3ccccc3s2)c2c1C(c1ccc(OCC(N)=O)cc1)SCC(=O)N2 (configuration not stated) | 0.02 µM
48 | CCC(=O)Nc1ccc(C(=O)Nc2ccccc2-c2ccccc2)cc1 | 20 µM
49 | O=C(NCCc1cccnc1)c1csc(-c2ccccc2)n1 | 25 µM
50 | O=C(NC(CO)c1ccc(F)cc1)c1ccc(-c2c[nH]c3ncccc23)s1 (configuration not stated) | 0.25 µM
51 | Cc1c(C(C)NC(=O)Nc2cccc(Cl)c2)sc2ncnn12 (configuration not stated) | 20 µM
52 | CCCC(=O)N(Cc1ccccn1)c1nc2ccccc2s1 | 20 µM
53 | CNc1cc(Cn2c(C(=O)c3cc(C)cc(Cl)c3)c(C(C)C)c(=O)[nH]c2=O)ccn1 | 25 µM
54 | O=C(Nc1nccs1)c1ccccc1Cn1cc([N+](=O)[O-])cn1 | 0.32 µM
55 | CC(=O)Nc1cccc(Nc2ncnc3nc[nH]c23)c1 | 0.13 µM
56 | Cn1c(CC(=O)NNC(=O)c2ccc3ccccc3n2)nc2ccccc21 | 7.9 µM
57 | CC(C(=O)Nc1ccc(Br)cc1)N1CCN(c2ccc([N+](=O)[O-])cc2)CC1 (configuration not stated) | > 40 µM (inactive)
58 | OCCCNc1nc(Nc2ccncc2)nc2ccccc12 | 25 µM
59 | CCOc1ccc(OCC(=O)N2c3ccccc3CC2C(=O)NC)cc1 (configuration not stated) | 0.5 µM
60 | CN(Cc1ccc(C(N)=O)cc1)C(c1ccc(F)cc1)c1cccnc1 (configuration not stated) | > 40 µM (inactive)
61 | CCCN(Cc1ccc(OC)c(OC)c1)Cc1cc(=O)c2c(C)cc(C)cc2[nH]1 | 25 µM
62 | c1ccc(-c2nc(NCc3ccco3)c3ccccc3n2)nc1 | > 40 µM (inactive)

Continued, values first:

Row | IC50 | Structure (SMILES)
63 | 25 µM | COc1ccc(-c2nc3ccncc3c(=O)n2CCOc2ccccc2)cc1
64 | 20 µM | COCc1cc(Nc2ccc(Cl)cc2)nc(-c2ccccn2)n1
65 | 13 µM | CNc1nc(C)nc(N2CCc3cc(C(=O)NCc4ccc(-c5ccn[nH]5)cc4Cl)ccc32)n1
66 | 16 µM | COc1ccc(Cl)cc1CC(=O)Nc1n[nH]c(-c2ccccn2)n1
67 | 40 µM | Cc1nc(N2CC(C)OC(C)C2)sc1C(=O)Nc1ccc2c(c1)OCO2 (configuration not stated)
68 | 0.4 µM | COc1cnc2ccc(=O)n(CCN3CCC(NC/C=C/c4cc(F)ccc4F)CC3)c2c1
69 | 16 µM | COc1cc(-c2nc(N3CCOCC3)sc2-c2ccnc(NC3CCOCC3)n2)ccc1Cl
70 | 16 µM | CC(c1ccc2c(c1)CCCC2)N(C)c1ncc2c(N)nc(N)nc2n1 (configuration not stated)
71 | 0.079 µM | CC(C)c1cc(Nc2cc(Cc3ccccc3)nc(NC3CCC(O)CC3)n2)n[nH]1 (configuration not stated)
72 | 2.5 µM | Cc1ccccc1CNc1cc(C2CC2)nc(-c2nccn2C)n1
73 | 6.3 µM | CC1CN(S(=O)(=O)c2ccc(NC(=O)c3cc(C4CC4)nc4c3cnn4C(C)C)cc2)CC(C)O1 (configuration not stated)
74 | > 40 µM (inactive) | COc1ccc(CN2CCCCC2c2nc(-c3cccnc3)no2)cc1 (configuration not stated)
75 | 0.4 µM | Cc1[nH]nc(-c2nc3ccccc3[nH]2)c1C(=O)NC1CCCNC1 (configuration not stated)
76 | 0.4 µM | O=C(Cc1ccccc1)Nc1[nH]nc2sc(C(=O)NC3CCCC3)cc12
77 | 32 µM | O=S(=O)(c1cccc(CSc2nnc(-c3ccc4c(c3)OCO4)o2)c1)N1CCOCC1
78 | 13 µM | CCNc1cc(-c2ccccn2)nc(Nc2ccc(OC)cc2)n1
79 | 0.2 µM | CN(C(=O)Nc1ccc2c(c1)CCN(C1CCC1)CC2)c1ccc(C#N)cc1
80 | 0.5 µM | CN(C)S(=O)(=O)c1ccc(Cl)c(C(=O)Nc2nc(-c3ccccn3)cs2)c1
81 | 0.2 µM | CC1CCCN(S(=O)(=O)c2ccc(C(=O)Nc3nc(-c4ccccn4)cs3)cc2)C1 (configuration not stated)
82 | 0.25 µM | COc1cc(F)c2ncc(F)c(CCN3CC[C@H](NCc4cc5c(cn4)OCS5)[C@@H](O)C3)c2c1
83 | 10 µM | O=C(C1CCCCC1)N1CCN(c2nnc(-c3ccccc3)c3ccccc23)CC1
84 | 4 µM | COc1ccc(Nc2nc(-c3ccccn3)cc(N3CCCC(O)C3)n2)cc1 (configuration not stated)
85 | > 40 µM (inactive) | CN(Cc1nnnn1C1CCN(Cc2ccc(-n3ccnc3)cc2)CC1)c1ccc(F)cc1F

Row | IC50 | Structure (SMILES)
86 | 0.16 µM | NC(=O)c1cc(F)ccc1Nc1nc(NC2CCC(O)CC2)ncc1Cl (configuration not stated)
87 | 0.25 µM | COc1cnc2ccc(=O)n(CCN3CCC(NC(=O)Cc4ccc(Cl)c(Cl)c4)CC3)c2c1
88 | 1 µM | O=C(NC1CCN(C2Cc3ccc(NS(=O)(=O)c4cc(F)cc(F)c4)cc3C2)CC1)C1CC1 (configuration not stated)
89 | 2.5 µM | COc1ccccc1CNc1cc(C2CC2)nc(-c2nccn2C)n1
90 | 1.3 µM | COc1ccc(CNc2cc(C3CC3)nc(-c3nccn3C)n2)cc1
91 | > 40 µM (inactive) | Clc1ccc(C(CC2CCCCO2)Cn2cncn2)c(Cl)c1 (configuration not stated)
92 | 0.13 µM | CC1CCCCN1C(=O)NCCc1coc(-c2ccc(F)cc2)n1 (configuration not stated)
93 | 2.5 µM | N#Cc1cc([N+](=O)[O-])ccc1NC1CCCCCC1
94 | 32 µM | Clc1ccc(OCCN2CCCCC2c2cccnc2)c(Cl)c1 (configuration not stated)
95 | 10 µM | COc1ccc(C(=O)Nc2cc(C(F)(F)F)ccc2N2CCOCC2)c(OC)c1
96 | 0.4 µM | O=C(Nc1nc(-c2ccccn2)cs1)c1ccc(S(=O)(=O)N2CCCCC2)cc1
97 | 13 µM | O=C(c1cccc(Nc2ncc(-c3ccc4c(c3)OCO4)cn2)c1)N1CCSC1
98 | 0.063 µM | Cc1ccc(NC(=O)c2ccnc(N3CCCC3)c2)cc1-c1ccsc1C(N)=O
99 | > 40 µM (inactive) | CC(C)c1cc(C(=O)N2CCCC(c3cc4ncccc4[nH]3)C2)on1 (configuration not stated)
100 | 4 µM | Cc1ccc2c(c1)SC(C(=O)Nc1n[nH]c(-c3ccccn3)n1)C2 (configuration not stated)
101 | 0.2 µM | O=C(Nc1ccc(C(=O)N2CCCC2c2ccc3c(c2)OCCCO3)cc1)c1ccco1 (configuration not stated)
102 | 32 µM | CN(Cc1cccnc1)Cc1ccc(N2CCN(C(=O)C3(c4ccc(Cl)cc4)CC3)CC2)nc1
103 | 0.04 µM | N#Cc1cccc(Cc2cc(Nc3cc(C4CC4)[nH]n3)nc(N3CC[C@H]3C(N)=O)n2)c1
104 | 0.16 µM | CCc1c(C)nc(-n2nc(C)cc2NC(=O)COc2ccccc2F)[nH]c1=O
105 | 0.16 µM | COc1cccc2sc(CN(C)C(=O)C3CNCCN3c3ccc(F)cc3)c(C)c12 (configuration not stated)
106 | 0.04 µM | NC(N)=Nc1nc(-c2ccc(NC(N)=NCCN3CCCC3)cc2)cs1
107 | 0.2 µM | CC(C)S(=O)(=O)c1ccc(-c2cnc(N)c3cc(-c4ccnc(N)n4)ccc23)cc1
